Assays:
kudzu (Pueraria lobata) = assay: Test Example 12, non-cultivated land: herbicidal activity; format: in vivo; conditions: sprayed to soil surface the day after seeding, 14 days in greenhouse
Excerpt: Plastic pots each having a diameter of 9 cm and depth of 7 cm were filled with upland soil, and then seeded with kudzu (Pueraria lobata).

[1] = system: barnyardgrass (Echinochloa crus-gall); assay: Test Example 2, vegetable field: herbicidal activity; format: in vivo, Echinochloa crus-galli; conditions: granules to soil surface the day after seeding, grown 29 days
Excerpt: (§1) Plastic pots each having a diameter of 18 cm and depth of 14 cm were filled with upland soil, and then seeded with barnyardgrass (Echinochloa crus-gall) and onion (Allium cepa).

[2] = system: giant foxtail (Setaria faberi); assay: Test Example 5, vegetable field: herbicidal activity; format: in vivo; conditions: granules to soil surface the day after seeding, 17 days in greenhouse
Excerpt: (§2) Plastic pots each having a diameter of 18 cm and depth of 14 cm were filled with upland soil, seedlings of strawberry (Fragaria ananassa) was transplanted and then seeded with giant foxtail (Setaria faberi).

[3] = system: hemp sesbania (Seshania exaltata); assay: Test Example 1, peanut field: herbicidal activity; format: in vivo; conditions: sprayed over plants grown 12 days, examined 7 days after application
Method: (§3) Plastic pots each having a diameter of 18 cm and depth of 14 cm were filled with upland soil, and then seeded with yellow nutsedge (Cyperus esculentus), hemp sesbania (Seshania exaltata) and sicklepod (Cassia obtusifolia). In a greenhouse, they were grown for 12 days. Flumioxazin water dispersible granules (commercial name: Valor SX, produced by Valent U.S.A.), Imazosulfuron emulsifiable concentrate (produced by mixing well 5 parts of Imazosulfuron, 65 parts of cyclohexanone, 13 parts of Sorpol 2680 (Toho Chemical's product) and 17 parts of dimethylformamide) and a mixture of the Flumioxazin water dispersible granules and the Imazosulfuron emulsifiable concentrate were independently diluted in their designated amounts with water. Each dilution was uniformly sprayed over the test plants with a small sprayer. […] Further, the pots were seeded with peanut (Arachis hypogea) 7 days after the application, and the phytotoxicity against the crop was examined 10 days after the seeding.

[4] = system: sicklepod (Cassia obtusifolia); assay: Test Example 1, peanut field: herbicidal activity; format: in vivo; conditions: sprayed over plants grown 12 days, examined 7 days after application
Method: as §3

[5] = system: yellow nutsedge (Cyperus esculentus); assay: Test Example 1, peanut field: herbicidal activity; format: in vivo; conditions: sprayed over plants grown 12 days, examined 7 days after application
Method: as §3

onion (Allium cepa) = assay: Test Example 2, vegetable field: phytotoxicity; format: in vivo; conditions: 20 g/ha active ingredient; granules to soil surface the day after seeding; grown 29 days
Excerpt: as §1

[6] = system: strawberry (Fragaria ananassa); assay: Test Example 5, vegetable field: phytotoxicity; format: in vivo; conditions: 40 g/ha active ingredient; transplanted seedlings; granules to soil surface the next day; 17 days in greenhouse
Excerpt: as §2

peanut (Arachis hypogea) = assay: Test Example 1, peanut field: phytotoxicity against crop; format: in vivo; conditions: peanut seeded 7 days after application, examined 10 days after seeding
Method: as §3

Row | SMILES | Herbicidal activity kudzu (kudzu (Pueraria lobata); 100 g/ha active ingredient) | Herbicidal activity kudzu (kudzu (Pueraria lobata); 500 g/ha active ingredient) | Herbicidal activity Barnyardgrass ([1]; 50 g/ha active ingredient) | Herbicidal activity giant foxtail ([2]; 50 g/ha active ingredient) | Herbicidal activity giant foxtail ([2]; 250 g/ha active ingredient) | Herbicidal activity Se ([3]; 60 g/ha active ingredient) | Herbicidal activity Se ([3]; 120 g/ha active ingredient) | Herbicidal activity Co ([4]; 60 g/ha active ingredient) | Herbicidal activity Co ([4]; 120 g/ha active ingredient) | Herbicidal activity Ce ([5]; 60 g/ha active ingredient) | Herbicidal activity Ce ([5]; 120 g/ha active ingredient) | Phtotoxicity Onion (onion (Allium cepa)) | Phtotoxicity strawberry [6] | Herbicidal activity Barnyardgrass ([1]; 20 g/ha active ingredient) | Phytotoxicity against crop Peanut (peanut (Arachis hypogea); 30 g/ha active ingredient) | Phytotoxicity against crop Peanut (peanut (Arachis hypogea); 60 g/ha active ingredient) | Herbicidal activity giant foxtail ([2]; 40 g/ha active ingredient) | Herbicidal activity Se ([3]; 30 g/ha active ingredient) | Herbicidal activity Co ([4]; 30 g/ha active ingredient) | Herbicidal activity Ce ([5]; 30 g/ha active ingredient)
1 | COc1cc(OC)nc(NC(=O)NS(=O)(=O)c2c(Cl)nc3ccccn23)n1 [Imazosulfuron, 1-(2-chloroimidazo[1,2-a]pyridin-3-ylsulfonyl)-3-(4,6-dimethoxypyrimidin-2-yl)urea] | 1 | 2 | 0 | 0 | 1 | 2 | 3 | 1 | 1 | 2 | 2 |  |  |  |  |  |  |  |  | 
2 | C#CCN1C(=O)COc2cc(F)c(N3C(=O)C4=C(CCCC4)C3=O)cc21 [Flumioxazin, N-(7-fluoro-3,4-dihydro-3-oxo-4-prop-2-ynyl-2H-1,4-benzoxadin-6-yl)cyclohex-1-ene-1,2-dicarboxamide] | 1 |  |  |  |  | 1 |  | 1 |  | 0 |  | No damage | No damage | 1 | No damage | No damage | 2 | 1 | 0 | 0

— patent US20060240986A1, “Herbicidal method” (Sumitomo Chemical Company, Limited, priority 2005, published 2006)
